The record followed here is US10696691B2, “BACE1 inhibitors” (Hoffmann-La Roche Inc., priority 2015, dated 2020).

Each structure is given as a SMILES string.

T1 sequence (P56817 46-501): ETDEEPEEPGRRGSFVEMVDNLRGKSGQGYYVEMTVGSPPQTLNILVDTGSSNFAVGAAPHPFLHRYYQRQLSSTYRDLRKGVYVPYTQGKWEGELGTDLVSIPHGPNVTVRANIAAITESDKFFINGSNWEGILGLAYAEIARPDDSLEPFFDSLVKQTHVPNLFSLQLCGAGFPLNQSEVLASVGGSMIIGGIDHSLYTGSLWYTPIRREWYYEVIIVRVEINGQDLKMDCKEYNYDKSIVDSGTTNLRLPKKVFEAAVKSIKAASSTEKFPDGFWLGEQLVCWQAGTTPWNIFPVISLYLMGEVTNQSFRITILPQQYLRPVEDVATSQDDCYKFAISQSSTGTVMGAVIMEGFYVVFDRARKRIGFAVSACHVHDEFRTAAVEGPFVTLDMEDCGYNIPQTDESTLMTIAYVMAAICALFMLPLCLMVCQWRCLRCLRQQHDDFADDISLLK

One assay has as its target T1, BACE1 (Homo sapiens, UniProt P56817).
T1 construct: endogenous in cells; host or cells: HEK293 APP cells
Nature of the assay: Cellular Aβ-lowering assay (Abeta 40 AlphaLISA, HEK293 APP cells). The class given is cell-based. As to conditions: 18-20 hrs incubation, Aβ 40 in culture supernatants, read-out: BACE1 cell act. Aβ40 IC50. The method, then: Cellular Aβ-Lowering Assay:
The Abeta 40 AiphaLISA Assay can be used. The HEK293 APP cells were seeded in 96 well Microtiter plates in cell culture medium (Iscove's, plus 10% (v/v) fetal bovine serum, penicillin/streptomycin) to about 80% confluency and the compounds were added at a 3× concentration in ⅓ volume of culture medium (final DMSO concentration was kept at 1% v/v). After 18-20 hrs incubation at 37° C. and 5% CO2 in a humidified incubator, the culture supernatants were harvested for the determination of Aβ 40 concentrations using Perkin-Elmer Human Amyloid beta 1-40 (high specificity) Kit (Cat # AL275C).
In a Perkin-Elmer White Optiplate-384 (Cat #6007290), 2 ul culture supernatants were combined with 2 μl of a 10× AlphaLISA Anti-hABAcceptor beads+Biotinylated Antibody Anti-AD 1-40 Mix (50 μg/mL/5 nM). After 1 hour room temperature incubation, 16 μl of a 1.25× preparation of Streptavidin (SA) Donor beads (25 μg/mL) were added and incubated for 30 minutes in the Dark. Light Emission at 615 nm was then recorded using EnVision-Alpha Reader. Levels of Aβ 40 in the culture supernatants were calculated as percentage of maximum signal (cells treated with 1% DMSO without inhibitor). The IC50 values were calculated using the Excel XLfit software.
`Cc1cc(C#N)cnc1C(=O)Nc1ccc(F)c([C@@]2(C)N=C(N)C(C)(C)[S@@]3(=O)=NCC[C@@H]23)c1` [Example 1AB, N-(3-((3aS,4R,8R)-6-amino-4,7,7-trimethyl-8-oxido-3,3a,4,7-tetrahydro-2H-isothiazolo[1,5-a][1,4]thiazin-4-yl)-4-fluorophenyl)-5-cyano-3-methylpicolinamide]: the IC50 stood at 0.09 nM.
Same read-out and setting: the result for `Cc1cc(C#N)cnc1C(=O)Nc1ccc(F)c([C@@]2(C)N=C(N)C(C)(C)[S@]3(=O)=NCC[C@H]23)c1` [Example 1BA, N-(3-((3aR,4R,8S)-6-amino-4,7,7-trimethyl-8-oxido-3,3a,4,7-tetrahydro-2H-isothiazolo[1,5-a][1,4]thiazin-4-yl)-4-fluorophenyl)-5-cyano-3-methylpicolinamide] reads 3.6 nM.
Same read-out and setting: in the case of `CC1(C)C(N)=N[C@](C)(c2cc(NC(=O)c3ccc(OC(F)F)cn3)ccc2F)[C@@H]2CCN=[S@@]21=O` [Example 5AB, N-(3-((3aS,4R,8R)-6-amino-4,7,7-trimethyl-8-oxido-3,3a,4,7-tetrahydro-2H-isothiazolo[1,5-a][1,4]thiazin-4-yl)-4-fluorophenyl)-5-(difluoromethoxy)picolinamide] it was 0.6 nM; in that of `CC1(C)C(N)=N[C@](C)(c2cc(NC(=O)c3nn(C(F)F)cc3Cl)ccc2F)[C@@H]2CCN=[S@@]21=O` [Example 6AB, N-(3-((3aS,4R,8R)-6-amino-4,7,7-trimethyl-8-oxido-3,3a,4,7-tetrahydro-2H-isothiazolo[1,5-a][1,4]thiazin-4-yl)-4-fluorophenyl)-4-chloro-1-(difluoromethyl)-1H-pyrazole-3-carboxamide], 1.1 nM; in that of `CC1(C)C(N)=N[C@](C)(c2cc(NC(=O)c3ncc(C(F)(F)F)cc3Cl)ccc2F)[C@@H]2CCN=[S@@]21=O` [Example 8AB, N-(3-((3aS,4R,8R)-6-amino-4,7,7-trimethyl-8-oxido-3,3a,4,7-tetrahydro-2H-isothiazolo[1,5-a][1,4]thiazin-4-yl)-4-fluorophenyl)-3-chloro-5-(trifluoromethyl)picolinamide], 0.3 nM.
Still for that read-out and setting: the result for `Cc1cc(C#N)ccc1C(=O)Nc1ccc(F)c([C@@]2(C)N=C(N)C(C)(C)[S@@]3(=O)=NCC[C@@H]23)c1` [Example 9AB, N-(3-((3aS,4R,8R)-6-amino-4,7,7-trimethyl-8-oxido-3,3a,4,7-tetrahydro-2H-isothiazolo[1,5-a][1,4]thiazin-4-yl)-4-fluorophenyl)-4-cyano-2-methylbenzamide] reads 12.3 nM; that for `CC1(C)C(N)=N[C@](C)(c2cc(NC(=O)c3ccc(OCC(F)F)cn3)ccc2F)[C@@H]2CCN=[S@@]21=O` [Example 10AB, N-(3-((3aS,4R,8R)-6-amino-4,7,7-trimethyl-8-oxido-3,3a,4,7-tetrahydro-2H-isothiazolo[1,5-a][1,4]thiazin-4-yl)-4-fluorophenyl)-5-(2,2-difluoroethoxy)picolinamide], 2.2 nM.
With `Cc1cc(OC(F)F)cnc1C(=O)Nc1ccc(F)c([C@@]2(C)N=C(N)C(C)(C)[S@@]3(=O)=NCC[C@@H]23)c1` [Example 11AB, N-(3-((3aS,4R,8R)-6-amino-4,7,7-trimethyl-8-oxido-3,3a,4,7-tetrahydro-2H-isothiazolo[1,5-a][1,4]thiazin-4-yl)-4-fluorophenyl)-5-(difluoromethoxy)-3-methylpicolinamide], the IC50 is 0.2 nM.
Same read-out and setting: the result for `CC1(C)C(N)=N[C@](C)(c2cc(NC(=O)c3ccc(OCC(F)(F)C(F)F)cn3)ccc2F)[C@@H]2CCN=[S@@]21=O` [Example 12AB, N-(3-((3aS,4R,8R)-6-amino-4,7,7-trimethyl-8-oxido-3,3a,4,7-tetrahydro-2H-isothiazolo[1,5-a][1,4]thiazin-4-yl)-4-fluorophenyl)-5-(2,2,3,3-tetrafluoropropoxy)picolinamide] reads 1.4 nM; that for `CC1(C)C(N)=N[C@](C)(c2cc(NC(=O)c3ccc(C#N)cn3)ccc2F)[C@@H]2CCN=[S@@]21=O` [Example 16AB, N-(3-((3aS,4R,8R)-6-amino-4,7,7-trimethyl-8-oxido-3,3a,4,7-tetrahydro-2H-isothiazolo[1,5-a][1,4]thiazin-4-yl)-4-fluorophenyl)-5-cyanopicolinamide], 0.2 nM; that for `CC1(C)C(N)=N[C@](C)(c2cc(NC(=O)c3ccc(Cl)cn3)ccc2F)[C@@H]2CCN=[S@@]21=O` [Example 18AB, N-(3-((3aS,4R,8R)-6-amino-4,7,7-trimethyl-8-oxido-3,3a,4,7-tetrahydro-2H-isothiazolo[1,5-a][1,4]thiazin-4-yl)-4-fluorophenyl)-5-chloropicolinamide], 0.2 nM.
Same read-out and setting: in the case of `CC1(C)C(N)=N[C@](C)(c2cc(NC(=O)c3ncc(F)cc3F)ccc2F)[C@@H]2CCN=[S@@]21=O` [Example 19AB, N-(3-((3aS,4R,8R)-6-amino-4,7,7-trimethyl-8-oxido-3,3a,4,7-tetrahydro-2H-isothiazolo[1,5-a][1,4]thiazin-4-yl)-4-fluorophenyl)-3,5-difluoropicolinamide] it was 1.3 nM; in that of `Cc1ccc(C(=O)Nc2ccc(F)c([C@@]3(C)N=C(N)C(C)(C)[S@@]4(=O)=NCC[C@@H]34)c2)nc1` [Example 20AB, N-(3-((3aS,4R,8R)-6-amino-4,7,7-trimethyl-8-oxido-3,3a,4,7-tetrahydro-2H-isothiazolo[1,5-a][1,4]thiazin-4-yl)-4-fluorophenyl)-5-methylpicolinamide], 0.4 nM.
Still for that read-out and setting: in the case of `Cc1ncc(C(=O)Nc2ccc(F)c([C@@]3(C)N=C(N)C(C)(C)[S@@]4(=O)=NCC[C@@H]34)c2)cn1` [Example 21AB, N-(3-((3aS,4R,8R)-6-amino-4,7,7-trimethyl-8-oxido-3,3a,4,7-tetrahydro-2H-isothiazolo[1,5-a][1,4]thiazin-4-yl)-4-fluorophenyl)-2-methylpyrimidine-5-carboxamide] it was 914 nM; in that of `Cc1cnc(C(=O)Nc2ccc(F)c([C@@]3(C)N=C(N)C(C)(C)[S@@]4(=O)=NCC[C@@H]34)c2)c(C)c1` [Example 23AB, N-(3-((3aS,4R,8R)-6-amino-4,7,7-trimethyl-8-oxido-3,3a,4,7-tetrahydro-2H-isothiazolo[1,5-a][1,4]thiazin-4-yl)-4-fluorophenyl)-3,5-dimethylpicolinamide], 0.2 nM; in that of `COc1ccc(C(=O)Nc2ccc(F)c([C@@]3(C)N=C(N)C(C)(C)[S@@]4(=O)=NCC[C@@H]34)c2)nc1` [Example 24AB, N-(3-((3aS,4R,8R)-6-amino-4,7,7-trimethyl-8-oxido-3,3a,4,7-tetrahydro-2H-isothiazolo[1,5-a][1,4]thiazin-4-yl)-4-fluorophenyl)-5-methoxypicolinamide], 0.7 nM.

The next assay deals with Aβ40. Nature of the assay: Lowering of Aβ40 in brain of wild-type mice. The conditions noted are these: Mus musculus, po; female C57Bl/6J mice, 30 mg/kg per os, 4 h; brain Aβ40 as percentage of the vehicle group; read-out: Aβ40 (wt mice, brain). The class given is in vivo. The method, then:
Lowering of Aβ40 in Brain of Wild-Type Mice:
Animals and Housing Conditions.
Animals were maintained in a 12/12 h light/dark cycle, with lights starting at 6 a.m., and experiments were conducted during the light phase, Animal housing and experimental procedures were in line with ethical and legal guidelines and were authorized by local veterinary authorities.
Female C57Bl/6J mice were treated with a dose of 30 mg/kg of the compounds, 3-4 animals per treatment group. The test compound was dissolved in 5% EtOH, 10% Solutol, and was applied per os at 10 mL/kg. After 4 h, the animals were sacrificed and brain and plasma were collected. The brain was cut into halves and immediately frozen on dry ice. Brain was used for measurement of Aβ40 and plasma was used for determination of compound exposure. […] Brain tissue was homogenized in 2% DEA buffer in a Roche MagnaLyser (20″, 4000 rpm) and subsequently centrifuged for 1 h at 100000 g. DEA was reduced to 0.2% in 50 mM NaCl and one-half of the DEA lysate was passed over an Oasis Solid phase extraction plate (Waters; cat. no. 186000679), which had been activated with MeOH and equilibrated in dH2O (1 mL each). After washes in 10% and 30% MeOH (1 mL each), the Aβ-peptides were eluted in 0.8 mL of 2% NH4OH in 90% MeOH. The eluate was dried over a N2 flow, and the dried sample was reconstituted in 30 μL of AlphaLISA assay buffer. Aβ40 was determined by an AlphaLISA assay (Perkin-Elmer). In a white 96-well, half area microplate (Perkin-Elmer cat. no. 6005561), 20 μL of the reconstituted sample were mixed with 5 μL of biotinylated BAP-24 (specific for C-terminus of Aβ40) (Brockhaus, M.; Onmberg, J.; Rohrig, S.; Loetscher, H.; Wittenburg, N.; Baumeister, R.; Jacobsen, H.; Haass, C. Caspasemediated cleavage is not required for the activity of presenilins in amyloidogenesis and NOTCH signaling. NeuroReport 1998, 9, 1481-1486.) stock=4.4 mg/mL, f.c.5.5 μg/mL), and 5 μL 252Q6 acceptor beads (252Q6 antibody, Invitrogen AMB0062) had been previously conjugated with AlphaLISA Acceptor beads (Perkin-Elmer cat. no. 6772002); final dilution 1:500). The mix was incubated for 1 h at RT in the dark. Then 20 μL of Streptavin-coated Donor Beads (Perkin-Elmer cat. no. 6760002, final dilution 1:125) were added and this final mix was incubated in the dark for another 30 min at RT before RFU was measured in an AlphaScreen Reader (Perkin-Elmer Envision 2104). The value obtained for A40 in the treated animals was related to the value in the vehicle group and is given in %. Alternatively a commercial ELISA was used for Aβ40 determination (Wako ELISA: (“Human/Rat 3 Amyloid (40) ELISA kit Wako II”; cat nr. 294-64701) following the manufacture's instruction. Also here the Aβ-lowering efficacy was calculated as percentage of the vehicle group.
As to `Cc1cc(C#N)cnc1C(=O)Nc1ccc(F)c([C@@]2(C)N=C(N)C(C)(C)[S@@]3(=O)=NCC[C@@H]23)c1` [Example 1AB, N-(3-((3aS,4R,8R)-6-amino-4,7,7-trimethyl-8-oxido-3,3a,4,7-tetrahydro-2H-isothiazolo[1,5-a][1,4]thiazin-4-yl)-4-fluorophenyl)-5-cyano-3-methylpicolinamide], the response vs control in vivo at 30 mg/kg is 14%.
On the same count and under the same terms, in the case of `Cc1cc(C#N)cnc1C(=O)Nc1ccc(F)c([C@@]2(C)N=C(N)C(C)(C)[S@]3(=O)=NCC[C@H]23)c1` [Example 1BA, N-(3-((3aR,4R,8S)-6-amino-4,7,7-trimethyl-8-oxido-3,3a,4,7-tetrahydro-2H-isothiazolo[1,5-a][1,4]thiazin-4-yl)-4-fluorophenyl)-5-cyano-3-methylpicolinamide] it was 73%.
